Assay [1] concerns ADR5000 cell line. Description: Potency index, ratio of doxorubicin EC50 to compound EC50 for human CEM/ADR5000 cells over-expressing P-gp. Format: functional.
For a further assay, the system named is CCRF-CEM. Description: Cytotoxicity against human CCRF-CEM cells assessed as reduction in cell viability after 72 hrs by resazurin dye based assay. Format: functional. A general note: Resazurin is reduced to fluorescent resorufin, in cell work by metabolically active cells.
For assay [2], the system named is ADR5000 cell line. Nature of the assay: Cytotoxicity against human CEM/ADR5000 cells over-expressing P-gp assessed as reduction in cell viability after 72 hrs by resazurin dye based assay. It counts as functional.
For assay [3], the system named is Human betaherpesvirus 5. Nature of the assay: Antiviral activity against GFP-fused Human cytomegalovirus AD169 infected in primary HFF. It counts as functional, organism-based. The note with it: Human betaherpesvirus 5, AD169, HFF.
The subject of assay [4] is Plasmodium falciparum. Description: Antimalarial activity against Plasmodium falciparum 3D7 infected in human erythrocytes after 72 hrs by SYBR green dye fluorescence assay. It counts as functional, organism-based. The note with it: 3D7, 72 h.
Assay [5] has as its system Human betaherpesvirus 5. Nature of the assay: Potency index, ratio of gancyclovir EC50 to compound EC50 for GFP-fused Human cytomegalovirus AD169 infected in primary HFF. It counts as functional.
Assay [6] concerns Plasmodium falciparum. Nature of the assay: Potency index, ratio of artesunic acid EC50 to compound EC50 for Plasmodium falciparum 3D7 infected in human erythrocytes. Format: functional.
[7] abbreviates: Homo sapiens, CCRF-CEM, 72 h, read-out: EC50.
Setting [8] is: Homo sapiens, ADR5000, 72 h, read-out: EC50.

In the case of `COc1cc(CCCOC(=O)CCC(=O)O[C@@H]2O[C@@H]3O[C@@]4(C)CC[C@H]5[C@H](C)CC[C@@H]([C@H]2C)[C@@]35OO4)cc2cc(-c3ccc4c(c3)OCO4)oc12`, in the assay with ADR5000 cell line [1], the “Ratio EC50” value is listed as “<=104”. Also, the EC50 in the assay on CCRF-CEM (setting [7]) amounted to 180 nM; in the assay on ADR5000 cell line [2] (setting [8]), 1120 nM; in the assay with Human betaherpesvirus 5 [3], 870 nM.
In the case of `COc1ccc(-c2cc3cc(CCCO)cc(OC)c3o2)cc1OC`, the 50% effective concentration (EC50) result was “Not Active” with CCRF-CEM (ccrf-cem), “Not Active” in the assay on ADR5000 cell line [2] (adr5000), 1280 nM in the assay on Human betaherpesvirus 5 [3] and 26500 nM in the assay with Plasmodium falciparum [4].
As to `CC1=CC(=O)C(C(C)C)=CC1=O` [THYMOQUINONE], the EC50 is 300 nM with CCRF-CEM (setting [7]), 300 nM in the assay with ADR5000 cell line [2] (setting [8]), more than 10000 nM with Human betaherpesvirus 5 [3] and more than 80000 nM with Plasmodium falciparum [4].
`COc1cccc2c1C(=O)c1c(O)c3c(c(O)c1C2=O)C[C@@](O)(C(=O)CO)C[C@@H]3O[C@H]1C[C@H](N)[C@H](O)[C@H](C)O1` [DOXORUBICIN]: the figures for the EC50 with CCRF-CEM (setting [7]) and in the assay on ADR5000 cell line [2] (setting [8]) were 15 nM and 41500 nM, respectively.
Regarding `CCN(CC)CCCC(C)Nc1ccnc2cc(Cl)ccc12` (stereo unspecified) [CHLOROQUINE], in the assay on Plasmodium falciparum [4], the EC50 came out at 9.8 nM.
In the case of `COc1cc(CCCOC(=O)C[C@H]2O[C@@H]3O[C@@]4(C)CC[C@H]5[C@H](C)CC[C@@H]([C@H]2C)[C@@]35OO4)cc2cc(-c3ccc4c(c3)OCO4)oc12`, the “Ratio EC50” value in the assay on ADR5000 cell line [1] is on record as “<=104”. For the same compound, the concentration giving a half-maximal response (EC50) in the assay with CCRF-CEM (setting [7]) is 568 nM; in the assay on ADR5000 cell line [2] (setting [8]), 582 nM; with Human betaherpesvirus 5 [3] it was 240 nM; with Plasmodium falciparum [4] it was 13.3 nM.
Turning to `C[C@H]1[C@@H](O)O[C@@H]2O[C@@]3(C)CC[C@H]4[C@H](C)CC[C@@H]1[C@@]24OO3` [ARTENIMOL], the EC50 in the assay with CCRF-CEM (setting [7]) was 85 nM; in the assay on ADR5000 cell line [2] (setting [8]) it was 265 nM; in the assay with Human betaherpesvirus 5 [3] it was more than 10000 nM; in the assay with Plasmodium falciparum [4], 2.4 nM.
The corresponding values for `COc1cc(CCCO)cc2cc(-c3ccc4c(c3)OCO4)oc12` [EGONOL] are 24700 nM, 26800 nM, 2380 nM and 7500 nM.
With `C[C@@H]1CC[C@H]2[C@@H](C)C(=O)O[C@@H]3O[C@@]4(C)CC[C@@H]1[C@]32OO4` [ARTEMISININ], the figures for the EC50 in the assay on CCRF-CEM (setting [7]) and with ADR5000 cell line [2] (setting [8]) were 36900 nM and 26900 nM, respectively.
The compound `Nc1nc2c(ncn2COC(CO)CO)c(=O)[nH]1` [GANCICLOVIR] came in with an EC50 with Human betaherpesvirus 5 [3] of 2600 nM.
Regarding `COc1cc(CCCO[C@H]2O[C@@H]3O[C@@]4(C)CC[C@H]5[C@H](C)CC[C@@H]([C@H]2C)[C@@]35OO4)cc2cc(-c3ccc4c(c3)OCO4)oc12`, the “Ratio EC50” value in the assay with ADR5000 cell line [1] was “<=104”. The EC50 in the assay on CCRF-CEM (setting [7]) came out at 99 nM; in the assay on ADR5000 cell line [2] (setting [8]), 400 nM; in the assay on Human betaherpesvirus 5 [3] it was 170 nM; with Plasmodium falciparum [4] it was 28.3 nM.
On to `C[C@H]1[C@H](OC(=O)CCC(=O)O)O[C@@H]2O[C@@]3(C)CC[C@H]4[C@H](C)CC[C@@H]1[C@@]24OO3` [ARTESUNATE], for which the EC50 in the assay on CCRF-CEM (setting [7]) stood at 69 nM; in the assay on ADR5000 cell line [2] (setting [8]) it was 189 nM; in the assay on Human betaherpesvirus 5 [3] it was 5410 nM; in the assay on Plasmodium falciparum [4] it was 9.7 nM.
In the case of `COc1ccc(-c2cc3cc(CCCO[C@H]4O[C@@H]5O[C@@]6(C)CC[C@H]7[C@H](C)CC[C@@H]([C@H]4C)[C@@]57OO6)cc(OC)c3o2)cc1OC`, the results for the “Ratio EC50” value with ADR5000 cell line [1] and in the assay on Human betaherpesvirus 5 [5] were “<=104” and 20, respectively. For the same compound, the half-maximal effective concentration (EC50) in the assay with CCRF-CEM (setting [7]) is 72 nM; in the assay on ADR5000 cell line [2] (setting [8]), 630 nM; in the assay on Human betaherpesvirus 5 [3], 130 nM; in the assay with Plasmodium falciparum [4], 6.5 nM.
In the case of `C[C@H]1[C@H](OC(=O)CCC(=O)OCC#CCOC(=O)CCC(=O)O[C@@H]2O[C@@H]3O[C@@]4(C)CC[C@H]5[C@H](C)CC[C@@H]([C@H]2C)[C@@]35OO4)O[C@@H]2O[C@@]3(C)CC[C@H]4[C@H](C)CC[C@@H]1[C@@]24OO3`, the entries for the “Ratio EC50” value in the assay with Plasmodium falciparum [6] and with Human betaherpesvirus 5 [5] were 2 and 6, respectively. Besides, the concentration giving a half-maximal response (EC50) with Human betaherpesvirus 5 [3] was found to be 940 nM; in the assay on Plasmodium falciparum [4], 3.8 nM.
Turning to `COc1cc(CCCOC(=O)CCCc2ccc(N(CCCl)CCCl)cc2)cc2cc(-c3ccc4c(c3)OCO4)oc12`, the figures for the EC50 in the assay on Human betaherpesvirus 5 [3] and with Plasmodium falciparum [4] were 2900 nM and 23200 nM, respectively.
As for `COc1cc(CC/C=N/C2=C(C)C(=O)C=C(C(C)C)C2=O)cc2cc(-c3ccc4c(c3)OCO4)oc12`, in the assay with ADR5000 cell line [1], the “Ratio EC50” value is “<=104”. The concentration giving a half-maximal response (EC50) was 43700 nM in the assay on CCRF-CEM (setting [7]), 17400 nM with ADR5000 cell line [2] (setting [8]) and 1190 nM with Plasmodium falciparum [4].

By EC50 is commonly meant the concentration giving half of the maximal effect.

For the origin of these results see ChEMBL document CHEMBL4118267, “Access to new highly potent antileukemia, antiviral and antimalarial agents via hybridization of natural products (homo)egonol, thymoquinone and artemisinin” (Bioorg Med Chem, 2018).
